Reference: patent publication US11608320B2, “Oxazolidinone hydroxamic acid derivatives” (KUWAIT UNIVERSITY, priority 2020, dated 2023)

What was measured:
[1] = target: T1, recombinant human 5-LO enzyme (Homo sapiens, UniProt P09917); assay: Direct 5-LO inhibitory activity in a cell-free assay (H2DCF-DA fluorescence); assay type: biochemical; conditions: cell-free, recombinant human 5-LO; read-out: Inhibitory Activity IC50, Human recomb. 5-LO
T1 sequence (P09917 1-674): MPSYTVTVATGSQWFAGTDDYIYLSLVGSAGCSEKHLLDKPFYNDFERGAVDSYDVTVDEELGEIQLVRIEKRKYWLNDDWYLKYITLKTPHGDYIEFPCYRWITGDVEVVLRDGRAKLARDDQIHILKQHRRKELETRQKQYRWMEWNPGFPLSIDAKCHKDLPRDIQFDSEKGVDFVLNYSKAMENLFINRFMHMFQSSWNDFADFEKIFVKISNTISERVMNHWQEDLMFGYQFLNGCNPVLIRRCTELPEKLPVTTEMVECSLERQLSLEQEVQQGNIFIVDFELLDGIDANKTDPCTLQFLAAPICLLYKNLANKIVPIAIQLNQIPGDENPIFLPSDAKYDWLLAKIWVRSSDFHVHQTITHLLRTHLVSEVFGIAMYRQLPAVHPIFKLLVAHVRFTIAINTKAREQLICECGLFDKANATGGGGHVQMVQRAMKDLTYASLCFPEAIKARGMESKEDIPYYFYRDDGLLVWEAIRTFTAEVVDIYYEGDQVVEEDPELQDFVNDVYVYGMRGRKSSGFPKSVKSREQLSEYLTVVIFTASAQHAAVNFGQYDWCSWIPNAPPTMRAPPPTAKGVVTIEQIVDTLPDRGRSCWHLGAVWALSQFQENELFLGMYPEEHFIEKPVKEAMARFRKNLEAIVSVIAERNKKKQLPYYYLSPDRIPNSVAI
Description: H2DCF-DA (60 μM) was first pre-cleaved by incubating with 450 mU/ml recombinant human 5-LO enzyme in Tris buffer (containing 50 mM Tris, pH=7.5, 2 mM EDTA, 2 mM CaCl2), 1 mM dithiothreitol (DTT) and 0.6 U/ml glutathione peroxidase) for 10 min at room temperature. […] After 10 min incubation at room temperature, the reaction was started with the addition of 50 μl of the substrate solution (Tris buffer containing 20 μM ATP and 20 μM arachidonic acid). After a further 20 min, the reaction was terminated with 100 μl acetonitrile. Fluorescence was read at 500 nm excitation and 520 emission, with Novostar® microplate reader (BMG Labtech, Offenburg, Germany). Appropriate controls, including 100 μM nordihydroguaiaretic acid (NDGA), were included to isolate only the 5-LO-attributable, NDGA-inhibitable RFU values.

Row | SMILES | IC50 [1] | melting point
1 | CC(C)CC(=O)N(O)C[C@H]1CN(c2ccc(N3CCOCC3)c(F)c2)C(=O)O1 [PH-239, (R)—N-((3-(3-fluoro-4-morpholinophenyl)-2-oxooxazolidin-5-yl)methyl)-N-hydroxy-3-methylbutanamide] | 4.7 µM | 122 to 124.5 °C
2 | CCCCC(=O)N(O)C[C@H]1CN(c2ccc(N3CCOCC3)c(F)c2)C(=O)O1 [PH-241, (R)—N-((3-(3-fluoro-4-morpholinophenyl)-2-oxooxazolidin-5-yl)methyl)-N-hydroxypentanamide] | 3.3 µM | 121 to 122.5 °C
3 | O=C(C1CCCC1)N(O)C[C@H]1CN(c2ccc(N3CCOCC3)c(F)c2)C(=O)O1 [PH-244, (R)—N-((3-(3-fluoro-4-morpholinophenyl)-2-oxooxazolidin-5-yl)methyl)-N-hydroxycyclopentane-carboxamide] |  | 164.5 to 166.5 °C
4 | O=C(C1CCC1)N(O)C[C@H]1CN(c2ccc(N3CCOCC3)c(F)c2)C(=O)O1 [PH-245, (R)—N-((3-(3-fluoro-4-morpholinophenyl)-2-oxooxazolidin-5-yl)methyl)-N-hydroxycyclobutane-carboxamide] |  | 132 to 133.5 °C
